Test results from PMC8512631, “Structural Basis for PPARs Activation by The Dual PPARα/γ Agonist Sanguinarine: A Unique Mode of Ligand Recognition” (Molecules, 2021).
Where a chain is given by its changes, count along the chain named. Values belong to the molecule of their own block, whether it stands above or below them. No end group written: not given here. *: point of attachment. Biotin = O=C1N[C@H]2[C@H](CS[C@H]2CCCCC(=O)*)N1

Legend:
PPARα = target: T1, PPARα (Homo sapiens, UniProt Q07869); assay: thermal shift assay of LBD with SRC1 peptide; GAL4 reporter at […]; type: binding
T1 construct: gene PPARA; LBD

PPARδ [1] = target: T2, PPARδ (Homo sapiens, UniProt Q03181, H244A); assay: PPRE luciferase reporter in […] cells, […]; type: cell-based
T2 construct: gene PPARD; full-length
T2 sequence (Q03181 1-441 H244A): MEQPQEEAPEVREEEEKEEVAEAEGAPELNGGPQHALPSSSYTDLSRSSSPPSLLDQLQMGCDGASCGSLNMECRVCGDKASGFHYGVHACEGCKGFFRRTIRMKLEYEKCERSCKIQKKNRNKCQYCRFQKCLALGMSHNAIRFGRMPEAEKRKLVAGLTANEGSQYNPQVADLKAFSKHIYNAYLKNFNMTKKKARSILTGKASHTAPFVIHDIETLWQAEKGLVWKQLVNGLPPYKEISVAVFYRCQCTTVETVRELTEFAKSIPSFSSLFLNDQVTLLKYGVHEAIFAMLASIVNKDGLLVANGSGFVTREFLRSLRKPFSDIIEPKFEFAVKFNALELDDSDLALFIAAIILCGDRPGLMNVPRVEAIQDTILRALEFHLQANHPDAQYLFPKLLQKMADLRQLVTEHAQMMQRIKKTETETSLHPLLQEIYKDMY

PPARδ [2] = target: T3, PPARδ (Homo sapiens, UniProt Q03181, R248A); assay: PPRE luciferase reporter in […] cells, […]; type: cell-based
T3 construct: gene PPARD; full-length
T3 sequence (Q03181 1-441 R248A): T2 sequence (Q03181 1-441 H244A) with A244H, R248A

[3] = target: T4, human PPARα ligand-binding domain (residues 196-468) (human, UniProt Q07869-1 196-468); assay: AlphaScreen or HTRF; approximately 20–40 nM PPAR LBDs on nickel chelate acceptor beads, 20 nM biotinylated co-factor peptides on streptavidin donor beads; 50 mM MOPS, 50 mM NaF, 0.05 mM CHAPS, 0.1 mg/mL BSA, pH 7.4; in response to 1 μM sanguinarine; settings: both partners purified
T4 construct: Expressed from pET24a; The methods describe only this PPARα-LBD construct; also called PPARα–LBD; source: E. coli BL21 (DE3), purified (Ni HiTrap, gel filtration Superdex 200); not shown: His6, N-terminal, kept
T4 sequence (looked up): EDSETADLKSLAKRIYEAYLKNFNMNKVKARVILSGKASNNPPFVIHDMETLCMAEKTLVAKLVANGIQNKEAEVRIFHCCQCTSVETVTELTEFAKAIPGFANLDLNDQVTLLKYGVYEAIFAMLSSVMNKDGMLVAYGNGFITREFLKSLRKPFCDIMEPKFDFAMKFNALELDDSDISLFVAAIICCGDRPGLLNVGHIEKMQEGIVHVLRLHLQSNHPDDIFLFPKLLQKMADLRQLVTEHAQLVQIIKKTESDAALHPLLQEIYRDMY

T1 sequence (Q15788 2-1441 partner, one chain of several): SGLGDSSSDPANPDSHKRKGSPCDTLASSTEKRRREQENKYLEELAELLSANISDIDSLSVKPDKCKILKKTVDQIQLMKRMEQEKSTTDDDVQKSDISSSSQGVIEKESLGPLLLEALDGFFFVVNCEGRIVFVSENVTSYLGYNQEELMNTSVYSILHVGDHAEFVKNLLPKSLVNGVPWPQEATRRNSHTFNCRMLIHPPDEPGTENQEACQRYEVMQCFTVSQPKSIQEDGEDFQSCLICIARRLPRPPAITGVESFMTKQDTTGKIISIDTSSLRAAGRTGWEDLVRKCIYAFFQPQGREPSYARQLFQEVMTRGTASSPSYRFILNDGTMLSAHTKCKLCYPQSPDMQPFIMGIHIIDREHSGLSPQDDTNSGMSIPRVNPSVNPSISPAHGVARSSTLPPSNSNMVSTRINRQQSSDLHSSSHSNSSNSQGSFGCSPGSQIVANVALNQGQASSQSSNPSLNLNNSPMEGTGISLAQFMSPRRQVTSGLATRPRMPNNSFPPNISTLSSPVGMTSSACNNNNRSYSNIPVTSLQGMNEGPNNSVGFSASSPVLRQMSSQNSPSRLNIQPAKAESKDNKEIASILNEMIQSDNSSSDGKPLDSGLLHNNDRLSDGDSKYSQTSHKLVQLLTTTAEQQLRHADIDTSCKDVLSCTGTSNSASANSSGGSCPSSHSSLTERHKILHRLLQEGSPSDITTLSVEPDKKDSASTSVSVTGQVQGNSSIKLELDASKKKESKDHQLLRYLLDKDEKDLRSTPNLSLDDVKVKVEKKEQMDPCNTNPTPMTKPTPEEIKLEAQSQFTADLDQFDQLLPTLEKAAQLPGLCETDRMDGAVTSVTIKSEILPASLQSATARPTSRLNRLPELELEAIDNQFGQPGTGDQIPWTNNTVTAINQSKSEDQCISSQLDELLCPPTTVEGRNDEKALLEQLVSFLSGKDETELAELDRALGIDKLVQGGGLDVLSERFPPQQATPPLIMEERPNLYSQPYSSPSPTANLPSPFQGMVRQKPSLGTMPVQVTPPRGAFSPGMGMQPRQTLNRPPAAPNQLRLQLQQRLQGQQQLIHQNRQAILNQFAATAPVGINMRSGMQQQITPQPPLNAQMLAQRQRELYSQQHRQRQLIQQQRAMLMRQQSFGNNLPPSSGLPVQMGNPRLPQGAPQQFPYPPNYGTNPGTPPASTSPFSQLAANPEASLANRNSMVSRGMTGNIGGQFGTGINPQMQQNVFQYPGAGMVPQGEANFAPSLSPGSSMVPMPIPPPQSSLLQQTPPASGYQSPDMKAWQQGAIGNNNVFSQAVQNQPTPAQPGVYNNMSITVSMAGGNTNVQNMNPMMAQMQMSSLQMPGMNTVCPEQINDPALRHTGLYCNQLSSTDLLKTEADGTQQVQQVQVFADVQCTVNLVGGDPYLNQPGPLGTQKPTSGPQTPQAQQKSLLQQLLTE

Molecule: Cc1nc(-c2ccc(C(F)(F)F)cc2)sc1C(=O)NCc1ccc(OC(C)(C)C(=O)O)cc1 [GW590735]
thermal shift assay of LBD with SRC1 peptide; GAL4 reporter at 1 μM (PPARα): thermal shift assay showed that SRC1 increased the thermal stability of sanguinarine–PPARα, compared with GW735–PPARα

Molecule: C[n+]1cc2c3c(ccc2c2ccc4cc5c(cc4c21)OCO5)OCO3 [sanguinarine]
PPRE luciferase reporter in 293T cells, 1 μM (PPARδ [1]): the H244A mutation enables PPARδ to respond to sanguinarine treatment
PPRE luciferase reporter in 293T cells, 1 μM (PPARδ [2]): sanguinarine activated the transcriptional activity of PPARδ–R248A mutation, in contrast to wild-type PPARδ

B2: biotinylated SRC1-2 co-activator LXXLL motif peptide (peptide)
peptide: Biotin-SPSSHSSLTERHKILHRLLQEGSP
binding result [3]: binds

Now from value to molecule:

binding result [3]: binds
B1: biotinylated SRC2-3 co-activator LXXLL motif peptide (peptide)
peptide: Biotin-QEPVSPKKKENALLRYLLDKDDTKD

binding result [3]: binds
B3: biotinylated SRC3-3 co-activator LXXLL motif peptide (peptide)
peptide: Biotin-PDAASKHKQLSELLRGGSG
notes: the parent protein is in doubt
